Laboratory results taken from patent publication US20240156825A1, “USE OF SELECTIVE VEGFR2 AND FGFR1 INHIBITORS” (Fountain Therapeutics Inc., priority 2022, published 2024).
Like-named read-outs stand apart in the source and are kept apart here.

How the values were obtained:
VEGFR2 and FGFR1 = test: Selection of compounds that selectively inhibit both VEGFR2 and FGFR1 (average relative IC50); assay type: biochemical
VEGFR2 [1] = target: T1, VEGFR2 (Homo sapiens, UniProt P35968); conditions: relative IC50: reported IC50 toward VEGFR2 divided by next lowest reported IC50 to any gene target
T1 sequence (P35968 20-1356, species assumed): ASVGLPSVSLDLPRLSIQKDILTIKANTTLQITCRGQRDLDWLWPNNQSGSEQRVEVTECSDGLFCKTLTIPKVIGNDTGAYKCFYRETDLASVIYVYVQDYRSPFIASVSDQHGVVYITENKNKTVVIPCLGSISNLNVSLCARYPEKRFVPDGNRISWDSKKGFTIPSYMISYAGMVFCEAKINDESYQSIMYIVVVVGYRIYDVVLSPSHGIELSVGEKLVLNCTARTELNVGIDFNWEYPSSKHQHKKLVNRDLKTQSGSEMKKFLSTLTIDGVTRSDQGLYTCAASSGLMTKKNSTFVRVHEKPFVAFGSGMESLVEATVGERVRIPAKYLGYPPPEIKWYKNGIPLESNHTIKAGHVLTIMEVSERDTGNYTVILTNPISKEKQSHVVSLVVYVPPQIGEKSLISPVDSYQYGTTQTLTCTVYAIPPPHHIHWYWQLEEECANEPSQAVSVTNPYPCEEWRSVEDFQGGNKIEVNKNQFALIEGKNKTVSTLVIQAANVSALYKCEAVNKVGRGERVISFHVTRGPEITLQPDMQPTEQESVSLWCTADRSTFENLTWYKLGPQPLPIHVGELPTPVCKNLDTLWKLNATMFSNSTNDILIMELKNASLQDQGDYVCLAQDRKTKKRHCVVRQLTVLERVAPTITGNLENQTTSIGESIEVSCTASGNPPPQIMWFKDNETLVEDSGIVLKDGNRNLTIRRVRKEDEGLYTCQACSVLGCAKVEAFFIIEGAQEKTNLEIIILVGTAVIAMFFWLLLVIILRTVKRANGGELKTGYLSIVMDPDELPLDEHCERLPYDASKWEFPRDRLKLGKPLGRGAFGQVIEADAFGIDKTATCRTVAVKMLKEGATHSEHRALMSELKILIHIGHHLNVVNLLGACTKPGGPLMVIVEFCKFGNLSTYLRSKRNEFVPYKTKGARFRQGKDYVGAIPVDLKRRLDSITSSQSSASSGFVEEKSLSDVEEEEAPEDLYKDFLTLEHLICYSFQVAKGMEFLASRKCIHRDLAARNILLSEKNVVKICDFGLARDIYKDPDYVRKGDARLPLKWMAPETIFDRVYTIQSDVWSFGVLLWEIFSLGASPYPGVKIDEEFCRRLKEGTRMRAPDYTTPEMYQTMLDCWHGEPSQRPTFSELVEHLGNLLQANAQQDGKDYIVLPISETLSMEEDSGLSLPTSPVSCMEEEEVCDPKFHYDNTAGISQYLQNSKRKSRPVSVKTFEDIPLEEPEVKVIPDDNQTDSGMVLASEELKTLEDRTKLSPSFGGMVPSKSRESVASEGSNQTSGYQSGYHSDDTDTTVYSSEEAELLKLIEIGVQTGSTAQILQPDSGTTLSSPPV

FGFR1 = FGFR1 (Homo sapiens, UniProt P11362)
Chain of FGFR1 (P11362 22-822, species assumed): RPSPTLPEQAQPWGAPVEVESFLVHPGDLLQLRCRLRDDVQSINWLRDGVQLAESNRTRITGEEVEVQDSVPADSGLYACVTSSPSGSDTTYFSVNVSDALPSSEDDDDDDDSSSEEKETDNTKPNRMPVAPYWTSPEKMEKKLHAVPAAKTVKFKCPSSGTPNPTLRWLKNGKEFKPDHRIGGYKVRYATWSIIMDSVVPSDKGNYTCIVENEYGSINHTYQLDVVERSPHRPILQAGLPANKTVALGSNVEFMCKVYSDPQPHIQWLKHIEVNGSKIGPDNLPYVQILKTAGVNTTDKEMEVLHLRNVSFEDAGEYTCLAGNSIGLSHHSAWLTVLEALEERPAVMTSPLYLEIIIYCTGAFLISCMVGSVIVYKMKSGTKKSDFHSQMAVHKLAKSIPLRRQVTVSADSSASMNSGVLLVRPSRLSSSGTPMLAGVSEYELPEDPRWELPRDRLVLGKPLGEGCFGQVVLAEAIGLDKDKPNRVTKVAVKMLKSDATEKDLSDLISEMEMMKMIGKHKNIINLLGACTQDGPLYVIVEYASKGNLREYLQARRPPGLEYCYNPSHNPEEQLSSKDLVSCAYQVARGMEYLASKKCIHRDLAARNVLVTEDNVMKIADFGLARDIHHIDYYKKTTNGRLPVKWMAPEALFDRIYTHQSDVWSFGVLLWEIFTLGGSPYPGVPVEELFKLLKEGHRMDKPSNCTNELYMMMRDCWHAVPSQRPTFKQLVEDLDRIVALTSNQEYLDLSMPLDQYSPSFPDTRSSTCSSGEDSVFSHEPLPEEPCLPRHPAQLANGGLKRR

VEGFR2 [2] = target: T1, VEGFR2
any gene target = conditions: cited from earlier work
[3] = average of VEGFR2 and FGFR1 relative IC50
[4] = relative IC50: reported IC50 toward FGFR1 divided by next lowest reported IC50 to any gene target
[5] = lowest reported IC50 to any gene target, read-out: min IC50
[6] = next lowest IC50 value to any gene target, Table 3, read-out: Min IC50_μM
[7] = reported IC50 to VEGFR2; Table 3, selective inhibitors of VEGFR2; read-out: VEGFR2 IC50_μM; cited from earlier work
[8] = reported IC50 to VEGFR2; read-out: VEGFR2 IC50_μM; cited from earlier work
[9] = next lowest IC50 value to any gene target, read-out: Min IC50_μM

Compound | avg rIC50 (VEGFR2 and FGFR1; [3]) | VEGFR2, rIC50 (VEGFR2 [1]) | FGFR1, rIC50 (FGFR1; [4]) | IC50 (VEGFR2 [2]; read-out: VEGFR2 IC50_μM; reported IC50 to VEGFR2; Table 3, selective inhibitors of VEGFR2; cited from earlier work) | IC50 (any gene target; [5]) | IC50 (any gene target; [6]) | IC50 (VEGFR2 [2]; [7]) | IC50 (VEGFR2 [2]; [8]) | IC50 (any gene target; [9]) | avg rIC50 (VEGFR2 and FGFR1) | FGFR1, rIC50 (FGFR1) | IC50 (any gene target; lowest reported IC50 to any gene target, read-out: Min IC50_μM) | IC50 (any gene target; read-out: min IC50)
CONC(=O)c1cc(Nc2ncnn3cc(-c4nnc(CC(C)C)o4)c(C(C)C)c23)c(F)cc1F [compound 11352215, 2,4-Difluoro-5-[6-(5-isobutyl-[1,3,4]oxadiazol-2-yl)-5-isopropyl-pyrrolo[2,1-f][1,2,4]triazin-4-ylamino]-N-methoxy-benzamide, reference compound] | 2.1 | 1.0 | 3.1 | 2.1 nM | 2 nM | 2.1 nM | – | – | – | – | – | – | –
CONC(=O)c1cc(Nc2ncnn3cc(-c4nnc(CS(C)(=O)=O)o4)c(C(C)C)c23)c(F)cc1F [compound 10436729, 2,4-Difluoro-5-[5-isopropyl-6-(5-methanesulfonylmethyl-[1,3,4]oxadiazol-2-yl)-pyrrolo[2,1-f][1,2,4]triazin-4-ylamino]-N-methoxy-benzamide, reference compound] | 1.6 | 1.0 | 2.2 | – | 2 nM | 2.1 nM | 2.1 nM | – | – | – | – | – | –
COC(=O)c1ccc2c(C(=Nc3ccc(-n4c(C)ccc4CN4CCN(C)CC4)cc3)c3ccccc3)c(O)[nH]c2c1 [compound 141475848, Methyl 2-hydroxy-3-[N-[4-[2-methyl-5-[(4-methylpiperazin-1-yl)methyl]pyrrol-1-yl]phenyl]-C-phenylcarbonimidoyl]-1H-indole-6-carboxylate, reference compound] | 2.1 | 0.7 | 3.5 | – | 7 nM | – | – | 6.5 nM | 9.9 nM | – | – | – | –
Nc1c(-c2nc3ccccc3[nH]2)c(=O)[nH]c2ccccc12 [compound 135410282, 4-Amino-3-(1H-benzo[d]imidazol-2-yl)quinolin-2(1H)-one] | 4.4 | 5.8 | 3.0 | – | 10 nM | – | – | – | – | – | – | – | –
CONC(=O)c1cc(Nc2ncnn3cc(-c4nnc(N(C)C)o4)c(C(C)C)c23)c(F)cc1F [compound 9982235, 5-[6-(5-Dimethylamino-[1,3,4]oxadiazol-2-yl)-5-isopropyl-pyrrolo[2,1-f][1,2,4]triazin-4-ylamino]-2,4-difluoro-N-methoxy-benzamide, reference compound] | 1.0 | 1.0 | 1.1 | – | 7 nM | 6.7 nM | 6.7 nM | – | – | – | – | – | –
COc1ccc(N2Cc3cnc(Nc4ccccc4)nc3N([C@H]3CC[C@H](O)C3)C2=O)cc1 [compound 11407794, (−)-(1S,3S)-1-(3-Hydroxy-cyclopentyl)-3-(4-methoxy-phenyl)-7-phenylamino-3,4-dihydro-1H-pyrimido[4,5-d]pyrimidin-2-one] | 1.5 | 0.5 | 2.5 | – | 33 nM | – | – | – | 33 nM | – | – | – | –
Chembl4213341 [compound 138393067] | 5.2 | 1.7 | 8.7 | – | 37 nM | – | – | – | – | – | – | – | –
CCc1nnc(-c2cn3ncnc(Nc4cc(C(=O)NOC)c(F)cc4F)c3c2C(C)C)o1 [compound 11374515, 5-[6-(5-Ethyl-[1,3,4]oxadiazol-2-yl)-5-isopropyl-pyrrolo[2,1-f][1,2,4]triazin-4-ylamino]-2,4-difluoro-N-methoxy-benzamide, reference compound] | 1.8 | 1.0 | 2.6 | – | 2 nM | 1.8 nM | 1.8 nM | – | – | – | – | – | –
CONC(=O)c1cc(Nc2ncnn3cc(-c4nnc(CC(F)(F)F)o4)c(C(C)C)c23)c(F)cc1F [compound 11455031, 2,4-Difluoro-5-{5-isopropyl-6-[5-(2,2,2-trifluoro-ethyl)-[1,3,4]oxadiazol-2-yl]-pyrrolo[2,1-f][1,2,4]triazin-4-ylamino}-N-methoxy-benzamide, reference compound] | 1.4 | 1.0 | 1.8 | – | 25 nM | 25 nM | 25 nM | – | – | – | – | – | –
CONC(=O)c1cc(Nc2ncnn3cc(-c4nnc(C)[nH]4)c(C(C)C)c23)c(F)cc1F [compound 11328182, 2,4-Difluoro-5-[5-isopropyl-6-(5-methyl-4H-[1,2,4]triazol-3-yl)-pyrrolo[2,1-f][1,2,4]triazin-4-ylamino]-N-methoxy-benzamide] | – | 1.1 | – | – | 46 nM | – | – | – | – | 1.0 | 1.0 | 46 nM | –
CNC(=O)c1cccc2cc(Oc3ccnc4cc(OCC5(N)CC5)c(OC)cc34)ccc12 [compound 25031915, Lucitanib] | 3.0 | 3.6 | – | – | 10 nM | – | – | – | – | – | 2.5 | – | –
Fc1ccc2c(-c3nc4cc(N5CCC(N6CCCCC6)CC5)ccc4[nH]3)n[nH]c2c1 [compound 135458467, 2-(6-Fluoro-1H-indazol-3-yl)-5-(4-(piperidin-1-yl)piperidin-1-yl)-1H-benzo[d]imidazole] | 1.8 | 1.6 | 2.0 | – | 16 nM | – | – | – | – | – | – | – | –
COC(=O)Nc1ccc(-c2c(OC3CCN(C)CC3)nc3c(-c4ccc(OC)c(OC)c4)cnn3c2N)cc1 [compound 156010414, Methyl N-[4-[7-amino-3-(3,4-dimethoxyphenyl)-5-(1-methylpiperidin-4-yl)oxypyrazolo[1,5-a]pyrimidin-6-yl]phenyl]carbamate] | 3.0 | 4.3 | 1.7 | – | 6 nM | – | – | – | – | – | – | – | –
Chembl4449189 [compound 155520650] | 1.8 | 2.4 | 1.2 | – | 110 nM | – | – | – | – | – | – | – | –
COc1cc2c(Nc3ccc(C#N)cc3F)ncnc2cc1OCCn1ccnn1 [compound 5329034, Anilinoquinazoline deriv. 36, reference compound] | 5.3 | 0.5 | 10.0 | – | 300 nM | – | – | 300 nM | 600 nM | – | – | – | –
CNC(=O)c1cccc2cc(Oc3ccnc4cc(OCC5(N)CC5)c(OC)cc34)ccc12.Cl [compound 57379018, 6-((7-((1-Aminocyclopropyl)methoxy)-6-methoxyquinolin-4-yl)oxy)-N-methyl-1-naphthamide hydrochloride] | 3.0 | 3.6 | – | – | – | – | – | – | – | – | 2.5 | – | 10 nM
